Measured values published in paper PMC12621175, “Scaffold Fusion and SAR Transfer with a Chemical Language Model Generates Novel Liver X Receptor Modulators” (Journal of Medicinal Chemistry, 2025).
“Also recorded” adds a separate entry of the source.

Columns and labels:
Assay type in all cases: cell-based
[1] = biological target: T1, PXR (NR1I2) (Homo sapiens, UniProt O75469); assay: Gal4-PXR hybrid reporter gene assay (off-target profiling); conditions: compared with T0901317
T1 construct: coding for the hinge region, and LBD of the canonical isoform of the respective nuclear receptor; expressed in transfected cells; host or cells: HEK293T
T1 sequence (O75469 146-433 limits assumed): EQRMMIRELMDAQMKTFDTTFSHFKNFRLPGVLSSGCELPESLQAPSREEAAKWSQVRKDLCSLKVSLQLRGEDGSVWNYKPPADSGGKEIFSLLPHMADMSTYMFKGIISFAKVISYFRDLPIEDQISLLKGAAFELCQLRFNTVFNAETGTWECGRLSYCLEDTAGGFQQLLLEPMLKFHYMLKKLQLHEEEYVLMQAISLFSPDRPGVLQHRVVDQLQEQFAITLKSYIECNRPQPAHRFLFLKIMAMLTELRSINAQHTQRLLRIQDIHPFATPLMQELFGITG
Description: (§1) For the hybrid reporter gene assays, the previously reported Gal4-fusion receptor plasmids pFA-CMV-hRORα-LBD, pFA-CMV-hRORβ-LBD, pFA-CMV-hRORγ-LBD, pFA-CMV-hLXRα-LBD, pFA-CMV-hLXRβ-LBD, pFA-CMV-hFXR-LBD, pFA-CMV-hPXR-LBD, and pFA-CMV-hRXRα-LBD, coding for the hinge region, and LBD of the canonical isoform of the respective nuclear receptor were used. pFR-Luc (Stratagene) was used as the reporter plasmid, and pRL-SV40 (Promega) was used in all assays for the normalization of transfection efficiency and cell growth. pECE-SV40-Gal4-VP16 was a gift from Lea Sistonen (Addgene plasmid #71728). The LXR-responsive reporter ABCA1-pGL3 was used for the full-length reporter gene assay.
(§2) The day before transfection, HEK293T cells were seeded in 96-well plates (4 × 10^4 cells/well). Before transfection, the medium was changed to Opti-MEM without any supplements. […] Luminescence was measured with a Spark 10 M luminometer (Tecan Deutschland GmbH). […] EC50/IC50 values and the standard errors thereof were calculated with the mean fold activation values by OriginPro, Version 2025 (OriginLab Corporation, Northampton, MA, USA), fitting a dose–response curve with a variable Hill slope (Levenberg–Marquardt algorithm). […]

[2] = biological target: T2, FXR (NR1H4) (Homo sapiens, UniProt Q96RI1); assay: Gal4-FXR hybrid reporter gene assay (off-target profiling); conditions: compared with T0901317
T2 construct: coding for the hinge region, and LBD of the canonical isoform of the respective nuclear receptor; expressed in transfected cells; host or cells: HEK293T
T2 sequence (Q96RI1 262-486 limits assumed): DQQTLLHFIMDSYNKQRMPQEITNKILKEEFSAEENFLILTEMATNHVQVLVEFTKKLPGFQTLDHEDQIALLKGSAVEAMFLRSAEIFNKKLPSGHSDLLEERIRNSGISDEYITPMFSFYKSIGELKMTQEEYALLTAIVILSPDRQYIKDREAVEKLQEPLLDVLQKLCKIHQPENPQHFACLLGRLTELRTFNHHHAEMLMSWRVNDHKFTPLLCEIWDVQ
Description: as §1, §2

[3] = biological target: T3, RORγ (NR1F3) (Homo sapiens, UniProt P51449); assay: Gal4-RORγ hybrid reporter gene assay (off-target profiling); conditions: compared with T0901317
T3 construct: coding for the hinge region, and LBD of the canonical isoform of the respective nuclear receptor; expressed in transfected cells; host or cells: HEK293T
T3 sequence (P51449 269-508 limits assumed): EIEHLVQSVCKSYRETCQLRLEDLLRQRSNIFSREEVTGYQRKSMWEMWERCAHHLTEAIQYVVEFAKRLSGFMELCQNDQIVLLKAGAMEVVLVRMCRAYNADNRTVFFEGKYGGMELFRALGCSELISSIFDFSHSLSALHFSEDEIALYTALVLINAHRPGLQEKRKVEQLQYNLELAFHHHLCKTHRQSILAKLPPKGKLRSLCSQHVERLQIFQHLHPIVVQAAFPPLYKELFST
Description: as §1, §2

[4] = test system: Gal4-VP16; assay: Gal4-VP16 control experiment (ligand-independent transcriptional activator); conditions: 30 μM; vs 0.1% DMSO
Description: as §1
as §2, with “cells/well).” for “cells/well). Before transfection, the medium was changed to Opti-MEM without any supplements.”
mediated inhibition of the LXR/RXR heterodimer. […] (c) Quantification of LXR expression on mRNA level in HEK293T and HepG2 cell lines using qRT -PCR. Expression levels were calculated according to the 2 -ΔCt method relative to GAPDH. […]

SMILES	PXR activity [1]	FXR activity [2]	RORγ activity [3]	influence on Gal4-VP16-mediated luciferase reporter expression [4]
CCN(C(=O)c1ccccc1)c1ccc(C(O)(C(F)(F)F)C(F)(F)F)cc1 [Compound 1, N-Ethyl-N-(4-[1,1,1,3,3,3-hexafluoro-2-hydroxypropan-2-yl]phenyl)benzamide]	reduced activity; also recorded: PXR agonism was retained	no activity; also recorded: did not affect	reduced activity; also recorded: weaker inverse RORγ agonist	–
CS(=O)(=O)c1cccc(-c2ccc(CN(Cc3cccc(C(F)(F)F)c3Cl)CC(c3ccccc3)c3ccccc3)cc2)c1 [Compound 3, N-(2-Chloro-3-[trifluoromethyl]benzyl)-N-([3′-{methylsulfonyl}-{1,1′-biphenyl}-4-yl]methyl)-2,2-diphenylethan-1-amine]	–	–	–	no influence
